Experimental data taken from US20260317356A1, “SMALL MOLECULE MODULATORS OF OGG1” (AZKARRA THERAPEUTICS, INC., priority 2023, published 2026).

What follows are compounds tested against hOGG1 (Homo sapiens, UniProt O15527) (assay: Biochemical fluorescence assay to measure enzymatic activity of hOGG1 (OGG1/APEX IC50)). Conditions: 1 nM OGG1+2 nM APEX+6 nM dsDNA (8-oxo-dG substrate); pH 7.5; RT 40 min; read-out: OGG1/APEX IC50.
hOGG1, sequence (O15527 12-323): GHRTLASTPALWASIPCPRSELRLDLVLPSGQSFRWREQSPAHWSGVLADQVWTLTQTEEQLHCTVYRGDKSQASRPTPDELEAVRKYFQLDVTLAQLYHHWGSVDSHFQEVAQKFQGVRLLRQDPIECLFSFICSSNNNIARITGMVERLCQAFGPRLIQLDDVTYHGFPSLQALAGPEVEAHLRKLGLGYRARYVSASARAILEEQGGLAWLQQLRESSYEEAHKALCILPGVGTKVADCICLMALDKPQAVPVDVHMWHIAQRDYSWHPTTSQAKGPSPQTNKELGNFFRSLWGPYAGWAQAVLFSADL
Parameters: Protein His-hOGG1 (12-323) was prepared; His (N); host or cells: E. coli
In short: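 His-hOGG1 (12-323, E. coli) at 1 nM with 2 nM hAPE1/APEX1, preincubated 20 min RT with compound. Then 6 nM 8-oxo-dG dsDNA substrate added, 40 min at RT in Tris pH 7.5, 100 mM KCl. TAMRA fluorescence (Ex520/Em600) converted to % inhibition vs controls; IC50 from 3-parameter fit of 10-point curve.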
An IC50 of 100 to 1000 nM was found for C=Cc1cccc2c1CN([C@H]1CC[C@@H](C(=O)Nc3ccc(C)c(OC)c3)CC1)C2=O [Example 155, (1s,4s)-N-(3-Methoxy-4-methylphenyl)-4-(1-oxo-4-vinylisoindolin-2-yl)cyclohexanecarboxamide] in this work.
An IC50 of 100 to 1000 nM was found for Cc1cc(NCCN(C)C)cc2c1CN([C@H]1CC[C@@H](C(=O)Nc3nc4ccccc4s3)CC1)C2=O [Example 129, (1s,4s)-N-(Benzo[d]thiazol-2-yl)-4-(6-((2-(dimethylamino)ethyl)amino)-4-methyl-1-oxoisoindolin-2-yl)cyclohexane-1-carboxamide] in this work.
An IC50 of 100 to 1000 nM was found for COc1cc(NC(=O)[C@H]2CC[C@@H](N3Cc4c(Br)ccnc4C3=O)CC2)ccc1C [Example 168, (1s,4s)-4-(4-Bromo-7-oxo-5H-pyrrolo[3,4-b]pyridin-6 (7H)-yl)-N-(3-methoxy-4-methylphenyl)cyclohexanecarboxamide] in this work.
An IC50 of over 10000 nM was found for CCOC(=O)c1ccc2c(c1)CN([C@H]1CC[C@@H](C(=O)Nc3ccc(C)c(OC)c3)CC1)C2=O [Example 171, Ethyl 2-((1s,4s)-4-(3-methoxy-4-methylphenylcarbamoyl)cyclohexyl)-1-oxoisoindoline-5-carboxylate] in this work.
An IC50 of 1000 to 10000 nM was found for COc1cc(NC(=O)[C@H]2CC[C@@H](N3Cc4c(cccc4C4CC4)C3=O)CC2)ccc1C [Example 151, (1s,4s)-4-(4-Cyclopropyl-1-oxoisoindolin-2-yl)-N-(3-methoxy-4-methylphenyl)cyclohexanecarboxamide] in this work.
An IC50 of under 100 nM was found for COc1cc(NC(=O)[C@H]2CC[C@@H](N3Cc4c(C)cc(CO)cc4NC3=O)CC2)ccc1C [Example 81, (1s,4s)-4-(7-(hydroxymethyl)-5-methyl-2-oxo-1,2-dihydroquinazolin-3(4H)-yl)-N-(3-methoxy-4-methylphenyl)cyclohexanecarboxamide] in this work.
An IC50 of under 100 nM was found for COc1cc(NC(=O)[C@H]2CC[C@@H](N3Cc4c(C)cc(N)cc4NC3=O)CC2)ccc1C [Example 76, (1s,4s)-4-(7-amino-5-methyl-2-oxo-1,2-dihydroquinazolin-3(4H)-yl)-N-(3-methoxy-4-methylphenyl)cyclohexanecarboxamide] in this work.
An IC50 of 100 to 1000 nM was found for COc1ncc(NC(=O)[C@H]2CC[C@@H](N3Cc4c(C)cccc4C3=O)CC2)cc1C [Example 244, (1s,4s)-N-(6-Methoxy-5-methylpyridin-3-yl)-4-(4-methyl-1-oxoisoindolin-2-yl)cyclohexanecarboxamide] in this work.
An IC50 of over 10000 nM was found for COc1cc(NC(=O)[C@H]2CC[C@@H](N3Cc4c(C)cccc4C3=O)CC2)ccc1C#N [Example 265, (1s,4s)-N-(4-Cyano-3-methoxyphenyl)-4-(4-methyl-1-oxoisoindolin-2-yl)cyclohexanecarboxamide] in this work.
An IC50 of under 100 nM was found for COc1cc(NC(=O)[C@H]2CC[C@@H](N3Cc4c(C)cc(C(=O)NCCN(C)C)cc4NC3=O)CC2)ccc1C [Example 84, N-(2-(dimethylamino)ethyl)-3-((1s,4s)-4-(3-methoxy-4-methylphenylcarbamoyl)cyclohexyl)-5-methyl-2-oxo-1,2,3,4-tetrahydroquinazoline-7-carboxamide] in this work.
An IC50 of 1000 to 10000 nM was found for Cc1cccc2c1CN([C@H]1CC[C@@H](C(=O)Nc3ccc4nc[nH]c4c3)CC1)C(=O)N2 [Example 109, (1s,4s)-N-(1H-benzo[d]imidazol-6-yl)-4-(5-methyl-2-oxo-1,2-dihydroquinazolin-3(4H)-yl)cyclohexanecarboxamide] in this work.
An IC50 of under 100 nM was found for COc1ccc(NC(=O)[C@H]2CC[C@@H](N3Cc4c(C)cccc4NC3=O)CC2)cc1C [Example 87, (1s,4s)-N-(4-methoxy-3-methylphenyl)-4-(5-methyl-2-oxo-1,2-dihydroquinazolin-3(4H)-yl)cyclohexanecarboxamide] in this work.
An IC50 of 1000 to 10000 nM was found for COc1cc(NC(=O)[C@]2(C)CC[C@@H](N3Cc4c(C)cccc4NC3=O)CC2)ccc1C (single isomer, unassigned) [Example 102, (1r,4r)-N-(3-methoxy-4-methylphenyl)-1-methyl-4-(5-methyl-2-oxo-1,2-dihydroquinazolin-3(4H)-yl)cyclohexanecarboxamide] in this work.
An IC50 of 100 to 1000 nM was found for Cc1cccc2c1CN([C@H]1CC[C@@H](C(=O)Nc3ccc(Cl)c(C#N)c3)CC1)C2=O [Example 263, (1s,4s)-N-(4-Chloro-3-cyanophenyl)-4-(4-methyl-1-oxoisoindolin-2-yl)cyclohexanecarboxamide] in this work.
An IC50 of 100 to 1000 nM was found for CNC(=O)c1cc(C)c2c(c1)C(=O)N([C@H]1CC[C@@H](C(=O)Nc3ccc(C)c(OC)c3)CC1)C2 [Example 212, 2-((1s,4s)-4-(3-Methoxy-4-methylphenylcarbamoyl)cyclohexyl)-N,7-dimethyl-3-oxoisoindoline-5-carboxamide] in this work.
An IC50 of over 10000 nM was found for COc1cc(NC(=O)[C@H]2CC[C@H](N3Cc4c(C)cc(COC5CNC5)cc4NC3=O)CC2)ccc1C [Example 111, (1r,4r)-4-(7-((azetidin-3-yloxy)methyl)-5-methyl-2-oxo-1,2-dihydroquinazolin-3(4H)-yl)-N-(3-methoxy-4-methylphenyl)cyclohexanecarboxamide] in this work.
An IC50 of under 100 nM was found for COc1cc(NC(=O)[C@H]2CC[C@@H](N3Cc4c(C)cc(OCC5(O)CNC5)cc4C3=O)CC2)ccc1C [Example 138, (1s,4s)-4-(6-((3-Hydroxyazetidin-3-yl)methoxy)-4-methyl-1-oxoisoindolin-2-yl)-N-(3-methoxy-4-methylphenyl)cyclohexanecarboxamide] in this work.
An IC50 of 100 to 1000 nM was found for COc1cc(NC(=O)[C@H]2CC[C@@H](n3[nH]c4c(C)cc(F)cc4c3=O)CC2)ccc1C [Example 119, (1s,4s)-4-(5-Fluoro-7-methyl-3-oxo-1,3-dihydro-2H-indazol-2-yl)-N-(3-methoxy-4-methylphenyl)cyclohexane-1-carboxamide] in this work.
An IC50 of under 100 nM was found for COc1cc(NC(=O)[C@H]2CC[C@@H](N3Cc4c(ccc(O)c4C)NC3=O)CC2)ccc1C [Example 60, (1s,4s)-4-(6-Hydroxy-5-methyl-2-oxo-1,2-dihydroquinazolin-3(4H)-yl)-N-(3-methoxy-4-methylphenyl)cyclohexanecarboxamide] in this work.
An IC50 of under 100 nM was found for COc1cc(NC(=O)[C@H]2CC[C@@H](N3Cc4c(C)cc(CNC(C)=O)cc4NC3=O)CC2)ccc1C [Example 27, (1s,4s)-4-(7-(Acetamidomethyl)-5-methyl-2-oxo-1,2-dihydroquinazolin-3(4H)-yl)-N-(3-methoxy-4-methylphenyl)cyclohexanecarboxamide] in this work.
An IC50 of under 100 nM was found for COc1cc(NC(=O)[C@H]2CC[C@@H](N3Cc4c(ccnc4C)NC3=O)CC2)ccc1C [Example 43, (1s,4s)-N-(3-Methoxy-4-methylphenyl)-4-(5-methyl-2-oxo-1,2-dihydropyrido[4,3-d]pyrimidin-3(4H)-yl)cyclohexanecarboxamide] in this work.
An IC50 of 100 to 1000 nM was found for COc1cc(NC(=O)[C@H]2CC[C@@H](N3Cc4c(Br)cc(NC(=O)Cn5ccnc5)cc4C3=O)CC2)ccc1C [Example 196, (1s,4s)-4-(6-(2-(1H-Imidazol-1-yl)acetamido)-4-bromo-1-oxoisoindolin-2-yl)-N-(3-methoxy-4-methylphenyl)cyclohexanecarboxamide] in this work.
An IC50 of under 100 nM was found for COc1cc(NC(=O)[C@H]2CC[C@@H](N3Cc4c(C)cc(NCC5CNC5)cc4C3=O)CC2)ccc1C [Example 195, (1s,4s)-4-(6-(Azetidin-3-ylmethylamino)-4-methyl-1-oxoisoindolin-2-yl)-N-(3-methoxy-4-methylphenyl)cyclohexanecarboxamide] in this work.
